Source: article PMC7948948 (The Journal of Biological Chemistry, 2021)
In brackets after ≈: the same amount, converted by molar mass.

Test system: Mtb pheS–FDAS
Format: cell-based, Mycobacterium tuberculosis

In the case of `O=C(Nc1cccnc1)N1CCC(Cc2cccc(Oc3ccc(C(F)(F)F)cn3)c2)CC1` [PF-3845], the “MIC, pheS–FDAS mutant” value is reported as 40 µM (≈ 18.3 µg/mL).
